Earlier results, collected in paper PMC4460250, “Systems Pharmacology Dissecting Holistic Medicine for Treatment of Complex Diseases: An Example Using Cardiocerebrovascular Diseases Treated by TCM” (Evidence-based Complementary and Alternative Medicine : eCAM, 2015).
Like-named read-outs stand apart in the source and are kept apart here.

Settings: cited from earlier work

SMILES | HIA(Human Intestinal Absorption) (in vivo) | HIA(Human Intestinal Absorption) (human, PreHIA data set, value given as fraction)
C#C[C@]1(O)CC[C@H]2[C@@H]3CCc4cc(O)ccc4[C@H]3CC[C@@]21C [Ethynylestradiol] | 1 | 
CC(O)(P(=O)(O)O)P(=O)(O)O [Etidronate] | 0.05 | 
COc1cc([C@@H]2c3cc4c(cc3[C@@H](O[C@@H]3O[C@@H]5CO[C@@H](C)O[C@H]5[C@H](O)[C@H]3O)[C@H]3COC(=O)[C@H]23)OCO4)cc(OC)c1O [Etoposide] | 0.5 | 
Cc1ccc(-c2ncc(Cl)cc2-c2ccc(S(C)(=O)=O)cc2)cn1 [Etoricoxib] | 1 | 
CC(=O)OCC(CCn1cnc2cnc(N)nc21)COC(C)=O [Famciclovir] | 0.77 | 
NC(N)=Nc1nc(CSCCC(N)=NS(N)(=O)=O)cs1 [Famotidine] | 0.28 | 
O=C(O)Cc1ccccc1Oc1ccc(Cl)cc1Cl [Fenclofenac] | 1 | 
CC(C)(C)NC(=O)[C@H]1CC[C@H]2[C@@H]3CC[C@H]4NC(=O)C=C[C@]4(C)[C@H]3CC[C@]12C [Finasteride] | 1 | 
Cc1onc(-c2c(F)cccc2Cl)c1C(=O)N[C@@H]1C(=O)N2[C@@H]1SC(C)(C)[C@@H]2C(=O)O [Floxacillin] | 0.8 | 
Nc1nc(=O)[nH]cc1F [Flucytosine] | 1 | 
CC(=O)OCC(=O)[C@@]1(O)CC[C@H]2[C@@H]3CCC4=CC(=O)CC[C@]4(C)[C@@]3(F)[C@@H](O)C[C@@]21C [Fludrocortisone_acetate] | 0.95 | 
CCOC(=O)c1ncn2c1CN(C)C(=O)c1cc(F)ccc1-2 [Flumazenil] | 0.95 | 
CC1(C)O[C@@H]2C[C@H]3[C@@H]4C[C@H](F)C5=CC(=O)C=C[C@]5(C)[C@H]4[C@@H](O)C[C@]3(C)[C@]2(C(=O)CO)O1 [Flunisolide] | 0.8 | 
O=C1OC2(c3ccc(O)cc3Oc3cc(O)ccc32)c2ccccc21 [Fluorescein] | 0.99 | 
CNCCC(Oc1ccc(C(F)(F)F)cc1)c1ccccc1 (stereo not shown) [Fluoxetine] | 0.8 | 
CC(C)C(=O)Nc1ccc([N+](=O)[O-])c(C(F)(F)F)c1 [Flutamide] | 0.9 | 
O=C(O)P(=O)(O)O [Foscarnet] | 0.17 | 
C[C@@H]1O[C@@H]1P(=O)(O)O [Fosfomycin] | 0.31 | 
Nc1nc(O)c2ncn(COC(CO)CO)c2n1 [Ganciclovir] | 0.038 | 
Cc1ccc(C)c(OCCCC(C)(C)C(=O)O)c1 [Gemfibrozil] | 1 | 

SMILES | HIA(Human Intestinal Absorption) (in vivo) | HIA(Human Intestinal Absorption) (human, PreHIA data set, value given as fraction)
C#C[C@]1(O)C=C[C@H]2[C@@H]3CCC4=CC(=O)CC[C@@H]4[C@H]3CC[C@@]21CC [Gestodene] | 1 | 
Cc1ccc(S(=O)(=O)NC(=O)N[C@H]2[C@H]3CC[C@@](C)([C@H]2O)C3(C)C)cc1 [Glibornuride] | 0.98 | 
Cc1ccc(S(=O)(=O)NC(=O)NN2CC3CCCC3C2)cc1 (stereo not shown) [Gliclazide] | 0.65 | 
CCC1=C(C)CN(C(=O)NCCc2ccc(S(=O)(=O)NC(=O)N[C@H]3CC[C@H](C)CC3)cc2)C1=O [Glimepiride] | 1 | 
COc1ccc2c(c1)C(=O)N(CCc1ccc(S(=O)(=O)NC(=O)NC3CCCCC3)cc1)C(=O)C2(C)C [Gliquidone] | 0.95 | 
COc1ccc(Cl)cc1C(=O)NCCc1ccc(S(=O)(=O)NC(=O)NC2CCCCC2)cc1 [Glyburide] | 1 | 
CN1C2CCCC1CC(NC(=O)c1nn(C)c3ccccc13)C2 (stereo not shown) [Granisetron] | 1 | 
N=C(N)N/N=C/c1c(Cl)cccc1Cl [Guanabenz] | 0.8 | 
NNc1nncc2ccccc12 [Hydralazine] | 1 | 
CCCCCC(=O)O[C@]1(C(C)=O)CC[C@H]2[C@@H]3CCC4=CC(=O)CC[C@]4(C)[C@H]3CC[C@@]21C [Hydroxyprogesterone_caproate] | 0.9 | 
Cc1ccc(NC(=O)c2ccc(CN3CCN(C)CC3)cc2)cc1Nc1nccc(-c2cccnc2)n1 [Imatinib] | 0.98 | 
C[C@@H](O)[C@H]1C(=O)N2C(C(=O)O)=C(SCCN=CN)C[C@H]12 [Imipenem] | 0.05 | 
CN(C)CCCN1c2ccccc2CCc2ccccc21 [Imipramine] | 1 | 
CC(C(=O)O)c1ccc(N2Cc3ccccc3C2=O)cc1 (stereo not shown) [Indoprofen] | 1 | 
CC(=O)N(CC(O)CO)c1c(I)c(C(=O)NCC(O)CO)c(I)c(C(=O)NCC(O)CO)c1I (stereo not shown) [Iohexol] | 0.05 | 
CCCCC1=NC2(CCCC2)C(=O)N1Cc1ccc(-c2ccccc2-c2nnn[nH]2)cc1 [Irbesartan] | 1 | 
NNC(=O)c1ccncc1 [Isoniazid] | 0.8 | 
CC1=C(/C=C/C(C)=C/C=C/C(C)=C\C(=O)O)C(C)(C)CCC1 [Isotretinoin] | 0.9 | 
O=C(O)Cc1ccc2c(c1)C(=O)c1ccccc1CO2 [Isoxepac] | 0.98 | 
Cc1cc(NC(=O)C2=C(O)c3ccccc3S(=O)(=O)N2C)no1 [Isoxicam] | 1 | 

SMILES | HIA(Human Intestinal Absorption) (in vivo) | HIA(Human Intestinal Absorption) (human, PreHIA data set, value given as fraction)
CC(CCc1ccccc1)NCC(O)c1ccc(O)c(C(N)=O)c1 (stereo not shown) [Labetalol] | 0.95 | 
Nc1nnc(-c2cccc(Cl)c2Cl)c(N)n1 [Lamotrigine] | 0.98 | 
Cc1c(OCC(F)(F)F)ccnc1C[S+]([O-])c1nc2ccccc2[nH]1 (stereo not shown) [Lansoprazole] | 0.85 | 
N#Cc1ccc(C(c2ccc(C#N)cc2)n2cncn2)cc1 [Letrozole] | 1 | 
c1ccc([C@H]2CN3CCSC3=N2)cc1 [Levamisole] | 0.95 | 
CC(C)(C)NC[C@H](O)COc1cccc2c1CCCC2=O [Levobunolol] | 1 | 
N[C@@H](Cc1ccc(O)c(O)c1)C(=O)O [Levodopa] |  | 0.86
CCC[C@@H]1C[C@@H](C(=O)N[C@@H]([C@H]2O[C@H](SC)[C@H](O)[C@@H](O)[C@H]2O)[C@@H](C)O)N(C)C1 [Lincomycin] | 0.28 | 
CCCCc1nc(Cl)c(CO)n1Cc1ccc(-c2ccccc2-c2nn[nH]n2)cc1 [Losartan] | 0.8 | 
OC[C@@H](O)[C@@H](O)[C@H](O)[C@H](O)CO [Mannitol] | 0.16 | 
CNCCCC12CCC(c3ccccc31)c1ccccc12 [Maprotiline] | 0.98 | 
COC(=O)Nc1nc2ccc(C(=O)c3ccccc3)cc2[nH]1 [Mebendazole] | 1 | 
Cc1cccc(Nc2ccccc2C(=O)O)c1C [Mefenamic_acid] | 0.9 | 
Cc1cnc(NC(=O)C2=C(O)c3ccccc3S(=O)(=O)N2C)s1 [Meloxicam] | 0.9 | 
C#C[C@]1(O)CC[C@H]2[C@@H]3CCc4cc(OC)ccc4[C@H]3CC[C@@]21C [Mestranol] | 0.9 | 
CN(C)C(=N)N=C(N)N [Metformin] | 0.53 | 
Cn1cc[nH]c1=S [Methimazole] | 0.95 | 
C[C@](N)(Cc1ccc(O)c(O)c1)C(=O)O [Methyldopa] | 0.41 | 
